The text below walks through data of ChEMBL document CHEMBL4622971, “The Optimization of a Novel, Weak Bromo and Extra Terminal Domain (BET) Bromodomain Fragment Ligand to a Potent and Selective Second Bromodomain (BD2) Inhibitor” (J Med Chem, 2020).

Data set [1] in a line: Distribution coefficient, logD of the compound at pH 7.4 by chromatography. Format: physicochemical.
Data set [2] is described as follows: Dose normalized AUC in male Wistar Han rat at 3 mg/kg, po measured up to 7 hrs by LC-MS/MS analysis. Format: ADME, organism-based. The settings on record: in vivo.
Data set [3] can be described thus: Intrinsic clearance in rat hepatocytes at 0.5 uM incubated for 60 mins by LC-MS/MS analysis. Format: ADME, cell-based, Hepatocyte. The settings on record: 1 h.
Data set [4] can be described thus: Intrinsic clearance in dog hepatocytes at 0.5 uM incubated for 120 mins by LC-MS/MS analysis. Format: ADME, cell-based, Canis lupus familiaris, Hepatocyte. The settings on record: 2 h.
A short description of data set [5]: Volume of distribution at steady state in male Wistar Han rat at 1 mg/kg, iv measured up to 7 hrs by LC-MS/MS analysis. Format: ADME, organism-based. The settings on record: in vivo, read-out: Vdss.
A short description of data set [6]: Blood clearance in male Wistar Han rat at 1 mg/kg, iv measured up to 7 hrs by LC-MS/MS analysis. The settings on record: whole blood. Format: ADME, organism-based.
Data set [7] in a line: Intrinsic clearance in human hepatocytes at 0.5 uM incubated for 120 mins by LC-MS/MS analysis. Format: ADME, cell-based, Hepatocyte. The settings on record: 2 h.
The nature of data set [8]: Half life in male Wistar Han rat at 1 mg/kg, iv measured up to 7 hrs by LC-MS/MS analysis. Format: ADME, organism-based. The settings on record: in vivo.
Data set [9] can be described thus: Intrinsic clearance in Wistar Han rat liver microsomes at 0.5 uM pre-incubated up to 45 mins before NADPH addition by LC-MS/MS analysis. Format: ADME, Microsome.
Data set [10] can be described thus: Intrinsic clearance in human liver microsomes at 0.5 uM pre-incubated up to 45 mins before NADPH addition by LC-MS/MS analysis. It counts as ADME, Microsome.
Data set [11] is described as follows: Oral bioavailability in male Wistar Han rat at 3 mg/kg measured up to 7 hrs by LC-MS/MS analysis. It counts as ADME, organism-based. The settings on record: in vivo.
Data set [12] is described as follows: Volume of distribution at steady state in male Wistar Han rat at […], iv measured up to 7 hrs by LC-MS/MS analysis. The settings on record: in vivo, read-out: Vdss.
The nature of data set [13]: Blood clearance in male Wistar Han rat at […], iv measured up to 7 hrs by LC-MS/MS analysis. The settings on record: whole blood.
The nature of data set [14]: Half life in male Wistar Han rat at […], iv measured up to 7 hrs by LC-MS/MS analysis. The settings on record: in vivo.
A short description of data set [15]: Half life in beagle dog at 10.5 mg/kg, iv measured up to 7 hrs by LC-MS/MS analysis. Format: ADME, organism-based, Canis lupus familiaris. The settings on record: in vivo.
A short description of data set [16]: Blood clearance in beagle dog at 10.5 mg/kg, iv measured up to 7 hrs by LC-MS/MS analysis. It counts as ADME, organism-based, Canis lupus familiaris. The settings on record: whole blood.
Data set [17] in a line: Oral bioavailability in beagle dog at 10.5 mg/kg, iv measured up to 7 hrs by LC-MS/MS analysis. It counts as ADME, organism-based, Canis lupus familiaris. The settings on record: in vivo.
The nature of data set [18]: Volume of distribution at steady state in beagle dog at 10.5 mg/kg, iv measured up to 7 hrs by LC-MS/MS analysis. The settings on record: in vivo, read-out: Vdss. It counts as ADME, organism-based, Canis lupus familiaris.

Turning to `CNC(=O)c1cc(C(=O)NC2CC2)cn(CC2CCCCC2)c1=O`, in data set [1], the chromatographic logD stood at 4.

For the molecule `CCNC(=O)c1cccn(Cc2ccccc2)c1=O`, in data set [1], the chromatographic logD was determined as 3.7.

`CNC(=O)c1cc(C(=O)NC2CC2)cn(Cc2cccc(CCN3CCOCC3)c2)c1=O` yielded a chromatographic logD in data set [1] of 2.3.

For the molecule `CNC(=O)c1cc(C(=O)NC2CC2)cn(Cc2cccc(F)c2)c1=O`, in data set [1], the chromatographic logD was 3.2.

The molecule `CNC(=O)c1cc(C(=O)NC2CC2)cn(Cc2cccc3[nH]c(C)nc23)c1=O` registered a chromatographic logD in data set [1] of 1.5.

Turning to `CNC(=O)c1cc(C(=O)NC2CC2)cn(Cc2ccc(F)cc2)c1=O`, the chromatographic logD in data set [1] came to 3.2.

On to `CNC(=O)c1cc(C(=O)NCCC(C)C)cn(Cc2ccccc2)c1=O`, for which the chromatographic logD in [1] amounted to 4.8.

The molecule `CNC(=O)c1cc(C(=O)NC(C)C)cn(Cc2ccccc2)c1=O` displayed a chromatographic logD in data set [1] of 3.6.

For the molecule `CNC(=O)c1cc(C(=O)NC2CC2)cn(Cc2cccc3[nH]ccc23)c1=O`, in [2], the AUC/dose came out at 23.6 kg·min/L. The CLH in data set [3] is 1.66 to 1.7 mL/min/g; in data set [4], less than 1.26 mL/min/g; in [7], less than 0.45 mL/min/g. For the same molecule, the Vd in data set [5] is 1.3 L/kg. Further, the clearance in data set [6] was 23 mL/min/kg. In data set [1], this molecule came in with a chromatographic logD of 2.9. The molecule further showed a half-life in [8] of 48 min.

In the case of `CNC(=O)c1ccc(=O)n(Cc2cc(Br)ccc2F)c1`, the CLH in [9] is 0.76 mL/min/g; in [10] it was 0.53 mL/min/g. In data set [1], this molecule gave a chromatographic logD of 2.6.

Molecule `CNC(=O)c1cc(C(=O)NC2CC2)cn(Cc2ccc3nc[nH]c3c2)c1=O` returned a chromatographic logD in [1] of 1.2.

`CNC(=O)c1cc(C(=O)NC2CC2)cn(Cc2ccccc2F)c1=O` showed a chromatographic logD in [1] of 3.

As for `CNC(=O)c1cc(C(=O)NCCC2CCOCC2)cn(Cc2ccccc2)c1=O`, the chromatographic logD in [1] came to 3.6.

Molecule `CNC(=O)c1cc(C(=O)NC2CC2)cn(CC2CCCOC2)c1=O` (racemic) came in with a chromatographic logD in [1] of 2.

In turn, `CNC(=O)c1cc(C(=O)NC2CC2)cn(Cc2cccc(OC)c2)c1=O` gave a chromatographic logD in data set [1] of 3.

Consider `CNC(=O)c1cc(C(=O)NC2CC2)cn(Cc2ccc(C)cc2)c1=O`, for which the chromatographic logD in data set [1] came to 3.5.

The molecule `CNC(=O)c1cc(C(=O)NC)c(=O)n(Cc2ccccc2)c1` showed a chromatographic logD in data set [1] of 2.4.

In turn, `CNC(=O)c1cc(C(=O)NCCCC2CNCCO2)cn(Cc2ccccc2)c1=O` (racemic) yielded a chromatographic logD in [1] of 1.4.

`CNC(=O)c1cc(C(=O)NC2CCC2)cn(Cc2ccncc2)c1=O` came in with a chromatographic logD in data set [1] of 1.7.

In the case of `CNC(=O)c1cc(C(=O)NC2CC2)cn(Cc2cccc3c2CCN3)c1=O`, the CLH was less than 0.8 mL/min/g in data set [3], less than 1.26 mL/min/g in data set [4] and less than 0.45 mL/min/g in data set [7]. Besides, the Vd in [5] was found to be 0.9 L/kg. Besides, in data set [6], the clearance was determined as 16 mL/min/kg. The bioavailability in data set [11] was 53%. The molecule further gave a chromatographic logD in [1] of 2.1. The molecule further had a half-life in data set [8] of 36 min.

In the case of `CNC(=O)c1cc(C(=O)NC2CC2)cn(Cc2nccc3[nH]ccc23)c1=O`, in data set [1], the chromatographic logD is 1.7.

In the case of `CNC(=O)c1cc(C(N)=O)cn(Cc2ccccc2)c1=O`, in [1], the chromatographic logD was 2.

With `CNC(=O)c1cc(C(=O)NC2CC2)cn(Cc2cccc([C@@H](C)O)c2)c1=O`, the CLH in data set [3] was 3 mL/min/g; in data set [4], less than 1.26 mL/min/g; in [7] it was less than 0.45 mL/min/g. For the same molecule, the Vd in data set [5] was determined as 1.7 L/kg. This molecule showed a clearance in data set [6] of 74 mL/min/kg. Moreover, the chromatographic logD in data set [1] was determined as 2.2. Also, in [8], the half-life is 24 min.

Regarding `CNC(=O)c1cc(C(=O)NC2CC2)cn([C@H](C)c2ccccc2)c1=O`, the Vd at 7 h in data set [12] came out at 1.6 L/kg. This molecule also came in with a clearance at 7 h in [13] of 72 mL/min/kg. The values for the CLH in data set [3] and in [7] were 1.5 mL/min/g and less than 0.87 mL/min/g, respectively. This molecule had a half-life at 7 h in [14] of 24 min. Moreover, the chromatographic logD in data set [1] is 3.5.

In data set [1], `CNC(=O)c1cc(C(=O)NC2CC2)cn(Cc2cccc3cc[nH]c23)c1=O` returned a chromatographic logD of 3.7.

The molecule `CNC(=O)c1cc(C(=O)NC2CC2)cn(CC2CCOCC2)c1=O` gave a chromatographic logD in data set [1] of 1.5.

`CNC(=O)c1ccc(=O)n(Cc2ccccc2)c1` displayed a chromatographic logD in data set [1] of 1.6. The chromatographic logD values of the last two molecules are within 0.2 log units of each other.

As to `CNC(=O)c1cc(C(=O)NC2CCC2)cn(Cc2cccnc2)c1=O`, the chromatographic logD in data set [1] was determined as 1.8.

For `CNC(=O)c1cc(C(=O)NC2CCC2)cn(Cc2ccccn2)c1=O`, the chromatographic logD in [1] stood at 2.2.

For the molecule `CNC(=O)c1cc(C(=O)NCC(C)C)cn(Cc2ccccc2)c1=O`, in data set [1], the chromatographic logD worked out at 4.3.

On to `CNC(=O)c1cc(C(=O)NC2CC2)cn(Cc2cccc3cn[nH]c23)c1=O`, for which the chromatographic logD in data set [1] was found to be 2.2.

With `CNC(=O)c1cc(C(=O)NC2CC2)cn(Cc2cccc3[nH]ncc23)c1=O`, the CLH is less than 0.8 mL/min/g in data set [3] and less than 0.45 mL/min/g in data set [7]. In [5], the Vd turned out to be 1.2 L/kg. The same molecule had a clearance in data set [6] of 42 mL/min/kg. In addition, the bioavailability in data set [11] came out at 14%. The molecule further displayed a chromatographic logD in data set [1] of 1.5. The half-life in data set [8] is 24 min.

Consider `CNC(=O)c1cc(C(=O)NC2CC2)cn(Cc2cccc(C#N)c2)c1=O`, for which the chromatographic logD in [1] was found to be 2.6.

As for `CNC(=O)c1cc(C(=O)NCCOC)cn(Cc2ccccc2)c1=O`, the chromatographic logD in data set [1] came out at 2.7.

In data set [1], `CNC(=O)c1cc(C(=O)NCCC2CCCNC2)cn(Cc2ccccc2)c1=O` (stereo not drawn) showed a chromatographic logD of 1.6.

As to `CCNC(=O)c1cc(C(=O)NC)c(=O)n(Cc2ccccc2)c1`, the CLH was less than 0.8 mL/min/g in [3], less than 1.26 mL/min/g in data set [4] and less than 0.87 mL/min/g in [7]. The Vd in [5] was found to be 0.8 L/kg. The same molecule registered a clearance in [6] of 12 mL/min/kg. In addition, in data set [11], the bioavailability was determined as 104%. Moreover, the chromatographic logD in [1] was determined as 3. The half-life in [8] is 36 min.

`CNC(=O)c1cc(C(=O)NC2CC2)c(C)n(Cc2ccccc2)c1=O` registered a chromatographic logD in [1] of 2.9.

`CNC(=O)c1cc(C(=O)NC2CCOCC2)cn(Cc2ccccc2)c1=O`: in data set [1], the chromatographic logD stood at 2.8. The chromatographic logD values of the last two molecules are within 0.2 log units of each other.

As to `CNC(=O)c1cc(C(=O)NC2CCC2)cn(Cc2cccc(NC)c2)c1=O`, the chromatographic logD in [1] was determined as 3.6.

`CNC(=O)c1cc(C(=O)NC2CC2)cn(Cc2cccc(C)c2)c1=O` registered a chromatographic logD in [1] of 3.6.

In the case of `CNC(=O)c1cc(C(=O)NC2CC2)cn(Cc2cccc3occc23)c1=O`, the chromatographic logD in data set [1] was found to be 3.4.

`CNC(=O)c1cc(C(=O)NC2CCC2)cn(Cc2ccccc2)c1=O` displayed a chromatographic logD in data set [1] of 3.8.

`CNC(=O)c1cc(C(=O)NC2CC2)cn(CC2CCCCO2)c1=O` (racemic) displayed a chromatographic logD in data set [1] of 2.6.

In turn, `CNC(=O)c1cc(C(=O)NCCO)cn(Cc2ccccc2)c1=O` returned a chromatographic logD in data set [1] of 1.9.

As to `CNC(=O)c1cc(C(=O)NC2CC2)cn(Cc2ccc(OC)cc2)c1=O`, the chromatographic logD in data set [1] came to 3.

As to `CNC(=O)c1cccn(Cc2ccccc2)c1=O`, the chromatographic logD in [1] came to 3.

`CNC(=O)c1cc(C(=O)NC2CC2)cn(Cc2ccccc2)c1=O` [GSK620]: the half-life in data set [15] was 342 min; in data set [8], 66 min. For the same molecule, the clearance in data set [16] worked out at 2 mL/min/kg; in [6], 12 mL/min/kg. The CLH was 0.95 mL/min/g in data set [3], less than 1.26 mL/min/g in [4] and less than 0.45 mL/min/g in data set [7]. Also, the bioavailability in data set [17] was 57%; in [11] it was 67%. For the same molecule, the Vd in [5] was determined as 0.8 L/kg; in data set [18], 1 L/kg. In [1], the chromatographic logD came to 3.1.
